Experimental data as given in patent US8211901B2, “Naphthamide derivatives as multi-target protein kinase inhibitors and histone deacetylase inhibitors” (Shenzhen Chipscreen Biosciences Ltd., priority 2009, dated 2012).

Assays:
Format in all cases: in vivo, nu/nu mice
[1] = Body weight in SSMC7721 xenograft study (Example 53)
Procedure: (§1) The antitumor activity of compound 31 was measured in human SSMC7721 liver cancer xenograft model. The female nu/nu mice of 18˜20 g were fed by normal diet for 3 days. Then the cultured SSMC7721 human liver cancer cells were implanted into the armpit of 50 mice. […] One group was treated with vehicle. One group was treated with sutent, the positive control drug. […] Each group was dosed orally once a day for 30 days. Tumor volumes as established by caliper measurements were recorded twice per week, along with body weights. At the end of study, the mice were killed, and tumors were weighed. The tumor growth inhibition of each group was calculated using the formula {[(the average tumor weight of vehicle group)−(the average tumor weight of drug group)]/(the average tumor weight of vehicle group)}×100%.

[2] = Body weight in A549 xenograft study (Example 51)
Procedure: The antitumor activity of compound 31 was measured in human A549 lung cancer xenograft model. […] Then the cultured A549 human lung cancer cells were implanted into the armpit of 50 mice. When tumors had reached approximately 6 mm in diameter, the mice were divided into 6 groups randomly. Each group has 8 mice. One group was treated with vehicle. One group was treated with sutent, the positive control drug. […] Each group was dosed orally once a day for 24 days. Tumor volumes as established by caliper measurements were recorded twice per week, along with body weights. At the end of study, the mice were killed, and tumors were weighed. The tumor growth inhibition of each group was calculated using the formula {[(the average tumor weight of vehicle group)-(the average tumor weight of drug group)]/(the average tumor weight of vehicle group)}×100%.

[3] = Body weight in HCT-8 xenograft study (Example 52)
Procedure: The antitumor activity of compound 31 was measured in human HCT-8 colon cancer xenograft model. The female nu/nu mice of 18˜20 g were fed by normal diet for 3 days. Then the cultured HCT-8 human colon cancer cells were implanted into the armpit of 50 mice. When tumors had reached approximately 100 mm^3, the mice were divided into 6 groups randomly. Each group has 8 mice. One group was treated with vehicle. One group was treated with sutent, the positive control drug. […] Each group was dosed orally once a day for 20 days. Tumor volumes as established by caliper measurements were recorded twice per week, along with body weights. At the end of study, the mice were killed, and tumors were weighed. The tumor growth inhibition of each group was calculated using the formula {[(the average tumor weight of vehicle group)−(the average tumor weight of drug group)]/(the average tumor weight of vehicle group)}×100%.

[4] = system: human SSMC7721 liver cancer xenograft; assay: Antitumor activity of compound 31, SSMC7721 xenograft (Example 53)
Procedure: as §1

[5] = Body weight in HCT-8 xenograft study (Example 55)
Procedure: The antitumor activity of compound 33 and compound 37 were measured in human HCT-8 colon cancer xenograft model. The female nu/nu mice of 18˜20 g were fed by normal diet for 3 days. Then the cultured HCT-8 human colon cancer cells were implanted into the armpit of 50 mice. […] One group was treated with vehicle. One group was treated with sutent, the positive control drug. Two groups were treated with compound 33. The other two groups were treated with compound 37. Compound 33 was administered twice a day with an interval of 6 hours. Other drugs and vehicle were administered once a day. Each group was dosed orally for 20 days. Tumor volumes as established by caliper measurements were recorded twice per week, along with body weights. At the end of study, the mice were killed, and tumors were weighed. The tumor growth inhibition of each group was calculated using the formula {[(the average tumor weight of vehicle group)−(the average tumor weight of drug group)]/(the average tumor weight of vehicle group)}×100%.

[6] = Body weight in SSMC7721 xenograft study (Example 56)
Procedure: The antitumor activity of compound 33 and compound 37 were measured in human SSMC7721 liver cancer xenograft model. The female nu/nu mice of 18˜20 g were fed by normal diet for 3 days. Then the cultured SSMC7721 human liver cancer cells were implanted into the armpit of 50 mice. […] Each group has 8 mice. One group was treated with vehicle. One group was treated with sutent, the positive control drug. Two groups were treated with compound 33. The other two groups were treated with compound 37. Each group was dosed orally once a day for 30 days. Tumor volumes as established by caliper measurements were recorded twice per week, along with body weights. At the end of study, the mice were killed, and tumors were weighed. The tumor growth inhibition of each group was calculated using the formula {[(the average tumor weight of vehicle group)−(the average tumor weight of drug group)]/(the average tumor weight of vehicle group)}×100%.

[7] = 2.5 mg/kg orally once a day for 30 days
[8] = 5 mg/kg orally once a day for 30 days
[9] = 10 mg/kg orally once a day for 30 days
[10] = 20 mg/kg orally once a day for 30 days
[11] = 5 mg/kg orally once a day for 24 days
[12] = 10 mg/kg orally once a day for 24 days
[13] = 20 mg/kg orally once a day for 24 days
[14] = 40 mg/kg orally once a day for 24 days
[15] = 2.5 mg/kg orally once a day for 20 days
[16] = 5 mg/kg orally once a day for 20 days
[17] = 10 mg/kg orally once a day for 20 days
[18] = 20 mg/kg orally once a day for 20 days
[19] = 30 × 2 mg/kg orally twice a day with an interval of 6 hours for 20 days
[20] = 60 × 2 mg/kg orally twice a day with an interval of 6 hours for 20 days
[21] = 30 mg/kg orally once a day for 30 days
[22] = 60 mg/kg orally once a day for 30 days

Compound: COc1ccc2c(Oc3ccc4c(C(=O)Nc5ccccc5N)cccc4c3)ccnc2c1 [Example 31, N-(2-aminophenyl)-6-(7-methoxyquinolin-4-yloxy)-1-naphthamide]
- Body weight (g) end [1, 7]: 23.2 ± 2.1 g
- Body weight (g) start [1, 7]: 20.1 ± 0.9 g
- Body weight (g) end [1, 8]: 24.8 ± 1.5 g
- Body weight (g) start [1, 8]: 20.8 ± 1.2 g
- Body weight (g) end [1, 9]: 23.6 ± 1.5 g
- Body weight (g) start [1, 9]: 20.4 ± 1.6 g
- Body weight (g) end [1, 10]: 21.0 ± 2.2 g
- Body weight (g) start [1, 10]: 20.2 ± 1.7 g
- Body weight (g) end [2, 11]: 24.6 ± 1.3 g
- Body weight (g) start [2, 11]: 21.1 ± 0.6 g
- Body weight (g) end [2, 12]: 25.1 ± 1.3 g
- Body weight (g) start [2, 12]: 19.9 ± 1.3 g
- Body weight (g) end [2, 13]: 24.2 ± 0.7 g
- Body weight (g) start [2, 13]: 20.6 ± 1.1 g
- Body weight (g) end [2, 14]: 22.6 ± 2.4 g
- Body weight (g) start [2, 14]: 20.0 ± 0.9 g
- Body weight (g) end [3, 15]: 24.5 ± 1.1 g
- Body weight (g) start [3, 15]: 20.3 ± 0.8 g
- Body weight (g) end [3, 16]: 24.8 ± 1.5 g
- Body weight (g) start [3, 16]: 21.6 ± 1.4 g
- Body weight (g) end [3, 17]: 23.7 ± 0.8 g
- Body weight (g) start [3, 17]: 20.7 ± 1.1 g
- Body weight (g) end [3, 18]: 22.5 ± 1.6 g
- Body weight (g) start [3, 18]: 20.5 ± 1.3 g
- TGI (%) Tumor growth inhibition [4, 7]: 51.7%
- Tumor weight [4, 7]: 1.63 ± 0.70 g
- TGI (%) Tumor growth inhibition [4, 8]: 65.4%
- Tumor weight [4, 8]: 1.16 ± 0.55 g
- TGI (%) Tumor growth inhibition [4, 9]: 79.2%
- Tumor weight [4, 9]: 0.70 ± 0.45 g
- TGI (%) Tumor growth inhibition [4, 10]: 84.4%
- Tumor weight [4, 10]: 0.53 ± 0.28 g

Compound: COc1ccc2c(Oc3ccc4c(C(=O)NCc5ccc(C(=O)Nc6ccccc6N)cc5)cccc4c3)ccnc2c1 [Example 33, N-(4-((2-aminophenyl)carbamoyl)benzyl)-6-(7-methoxyquinolin-4-yloxy)-1-naphthamide]
- Body weight (g) end [5, 19]: 22.6 ± 1.6 g
- Body weight (g) start [5, 19]: 21.1 ± 1.2 g
- Body weight (g) end [5, 20]: 19.0 ± 1.8 g
- Body weight (g) start [5, 20]: 20.1 ± 0.9 g
- Body weight (g) end [6, 21]: 24.0 ± 1.7 g
- Body weight (g) start [6, 21]: 20.8 ± 0.5 g
- Body weight (g) end [6, 22]: 25.4 ± 2.8 g
- Body weight (g) start [6, 22]: 21.4 ± 1.3 g
